Measurements taken from patent US20100143262A1, “Method for Identifying Allergenic Proteins And Peptides” (priority 2008, published 2010).

Tests used:
patients' serum IgE = test: microarray IgE reactivity testing of ALA-derived peptides; type: binding, human; settings: sera from the 36 patients with IgE reactivity to rALA
Method: IgE reactivity testing to ALA-derived peptides:IgE reactivities of the ALA-derived peptides were determined by microarray analysis as described (Schulmeister et al., J Immunol. 182(11):7019-29). In brief, milk components were spotted onto a capillary-flow membrane on an ordinary microscope glass slide and incubated with 25 μl of patients' sera. Bound IgE antibodies were detected with a fluorescence-conjugated anti-IgE antibody at a wavelength of 670 nm. The cut off level was set for each patient as the double value of the individual value gained with human serum albumin.
In order to identify IgE-reactive epitopes of ALA, we synthesized 8 peptides spanning the ALA sequence (Table 2). […] The IgE reactivity of the 8 overlapping peptides was evaluated by microarray analysis using sera from the 36 patients showing IgE reactivity to rALA. […] In total 19 of the 36 patients with IgE reactivity to rALA reacted at least with one ALA-derived synthetic peptide.

[1] = tested on: serum IgE of cow's milk allergic patients; test: IgE binding capacity (IgE reactivity) of milk components with patients' sera; design: species or system human; settings: sera of cow's milk allergic patients (n=78)
Excerpt: (§1) Sera from 78 patients who were selected according to a positive case history, positive skin-prick reactions and determination of specific IgE to cow's milk extract using the CAP-FEIA System (Phadia, Uppsala, Sweden) were used. Sera were obtained from five adults and 73 children (30 female and 43 male) from Austria, Germany, Italy, Spain and France.

[2] = tested on: Humanized Rat Basophil Leukaemia (RBL) cells (clone RBL-703/21); test: human RBL assay: β-hexosaminidase release of humanized RBL cells loaded with patients' serum IgE; type: cell-based; settings: for biological activity (% of patients): percentage of 78 patients' sera triggering β-hexosaminidase release, milk components 0.3 μg/ml; for extent of degranulation relative to the activity of the complete protein: synthetic alphaS1-casein-derived peptides
Excerpt: A scientifically approved model to test biological reactivity of molecules is induction of histamine release from human basophil granulocytes (Purohit 2005). For this purpose a rat basophil leukaemia cell line expressing the α-chain of the human FcεRI receptor (Hoffmann et al., Int Arch Allergy Immunol, Vol 126(4), p. 277-285) was used. Different milk components (n=33) including whole milk extracts from different species, milk fractions, purified natural and recombinant cow's milk proteins, and recombinant protein fragments were tested. The percentages of 78 patients whose serum IgE antibodies trigger β-hexosaminidase release of the humanized RBL cells in response to the individual milk components were determined (FIG. 3).
as §1
Humanized Rat Basophil Leukaemia (RBL) cells (clone RBL-703/21) were incubated in microtiter plates overnight at 37° C. (7% CO2, 95% humidity) with 50 μl human sera, diluted 1:10. Afterwards cells were washed and exposed to milk components, diluted to 0.3 μg/ml protein in Tyrodes buffer containing 50% D2O and 0.1% BSA/HAS for 1 hour at 37° C. (7% CO2, 95% humidity). Spontaneous release of the cells was also evaluated. Finally, the cell supernatants were incubated with 50 μl assay solution (0.1 M citric acid or sodium citrate, pH 4.5, 160 μM 4-methyl umbelliferyl-N-acetyl-β-D-glucosaminide) in new microtiter plates at 37° C. (7% CO2, 95% humidity) for 1 h. The reactions were stopped by addition of 100 μl glycine buffer per well and the fluorescence measured at λex: 360 and λem: 465 using a fluorescence microplate reader. The specific hexosaminidase release of each sample was calculated using the formula: [(FlS−FlSp):(FlZ−FlSp)]×100 (where […] is the fluorescence of the sample; FlSp is the fluorescence of the spontaneous release and FlZ is the fluorescence of the total release).

[3] = tested on: IgE of sera from cow's milk allergic patients; test: dot blot IgE reactivity of nitrocellulose-dotted milk components; type: binding, human; settings: 1 μg dotted; sera from three cow's milk allergic patients, 1:20
Excerpt: In FIG. 6 a Mascot search and the identification of beta-casein-derived peptides in hydrolyzed cow's milk is depicted. At the top beta-casein, the only identified milk allergen in mass spectrometry, is mentioned with its molecular mass and calculated pI. Below the search parameters and the obtained sequence coverage of beta-casein are given. […] The beta-casein allergen was identified with peptide matches: HQPHQPLPPT (calculated mass of 1.25 kDa, corresponding to aa 160-170 of beta-casein), VYPFPGPIPN (calculated mass of 1.19 kDa, corresponding to aa 74-84 of beta-casein), SSSEE (calculated mass of 0.65 kDa, corresponding to aa 31-36 of beta-casein), and PVVVPP (calculated mass of 0.87 kDa, corresponding to aa 96-103 of beta-casein). In FIG. 7 IgE reactivity testing of these peptides is shown (Table 1: cas b-1, 2, 3 and 4; FIG. 7). […] IgE reactivity of nitrocellulose-dotted cow's milk (CM), recombinant beta-casein (rBC), synthetic beta-casein-derived peptides (cas b-1, cas b-2, cas b-3, cas b-4), and recombinant alphaS1-casein (rAS1C) were analysed by dot blot assay. Nitrocellulose-bound milk components were incubated with the sera from three cow's milk allergic patients (lanes 1, 2 and 3) and a non-allergic individual (lane C). Bound IgE antibodies were detected with ^125I-labeled anti-IgE antibodies. […] Furthermore, they are different from the published major IgE binding regions of beta-casein (aa 1-16, aa 83-92, aa 135-144; Chatchatee 2001). None of the other IgE-reactive milk allergens and allergen fragments obtained by screening of the cDNA expression library (FIG. 1) were detected in the hydrolyzed milk sample which therefore could be identified as a non-allergenic preparation.
Hydrolyzed milk formula was analyzed by reversed-phase HPLC using a nano liquid chromatography system (Ultimate, LC Packings Dionex, The Netherlands) connected to the nanospray interface of a HCT-Ultra mass spectrometer (Bruker Daltonik, Germany). The obtained mass spectra were searched against the SwissProt protein databank using MASCOT (Matrix Science, London, United Kingdom) software search algorithms. For dot blot analysis 1 μg of protein was dotted onto nitrocellulose, and incubated with sera from milk allergic patients diluted 1:20 in PBST (PBS, 0.5% v/v Tween 20). Bound IgE antibodies were detected with 1:15 diluted ^125I-labelled anti-human IgE antibodies (IBL, Germany).

| Substance | IgE binding (% of patients) (patients' serum IgE) | IgE binding (% of patients) [1] | biological activity (% of patients) [2] | other results |
| --- | --- | --- | --- | --- |
| LAHKALCSEKLDQWLCEKL [Lac8, synthetic ALA-derived peptide] | 11.1 % of patients | – | – | – |
| alpha-casein [AC] | – | 50.0 % of patients | 25.6 % of patients | – |
| beta-lactoglobulin variant B [BLGB] | – | 51.3 % of patients | 19.2 % of patients | – |
| ISSSEEIVPNSVEQKHIQKEDVPSERYLGYEQLLRC [Cas 3, synthetic peptide of αS1-casein] | – | 46.2 % of patients | 2.6 % of patients | extent of degranulation relative to the activity of the complete protein [2]: about a tenth |
| recombinant kappa-casein [rKC] | – | 21.8 % of patients | 6.4 % of patients | – |
| ISCDKFLDDDLTDDIMCVKK [Lac6, synthetic ALA-derived peptide] | 2.8 % of patients | – | – | – |
| kappa-casein [KC] | – | 30.8 % of patients | 25.6 % of patients | – |
| PLGTQYTDAPSFSDIPNPIGSENSEKTTMPLWC [Cas 6, synthetic peptide of αS1-casein] | – | 37.2 % of patients | 7.7 % of patients | extent of degranulation relative to the activity of the complete protein [2]: one fourth |
| sheep serum albumin [SSA] | – | 1.3 % of patients | 2.6 % of patients | – |
| alpha-lactalbumin [ALA] | – | 65.4 % of patients | 11.5 % of patients | – |
| VYPFPGPIIPNS [cas b-2, synthetic peptide of β-casein] | – | – | – | IgE reactivity (dot blot) [3]: not IgE-reactive |
| FGKEKVNELSKDIGSESTEDQAMEDIKQMEAES [Cas 2, synthetic peptide of αS1-casein] | – | 15.4 % of patients | 3.8 % of patients | extent of degranulation relative to the activity of the complete protein [2]: one fourth |
| PVVVPPFL [cas b-4, synthetic peptide of β-casein] | – | – | – | IgE reactivity (dot blot) [3]: not IgE-reactive |
| LKGYGGVSLPEWVCTTFHTS [Lac2, synthetic ALA-derived peptide] | 33.3 % of patients | – | – | – |
| CPMIGVNQELAYFYPELFRQFYQLDAYPSGAWYYV [Cas 5, synthetic peptide of αS1-casein] | – | 41.0 % of patients | 5.1 % of patients | extent of degranulation relative to the activity of the complete protein [2]: about a tenth |
| recombinant beta-lactoglobulin [rBLG] | – | 23.1 % of patients | 12.8 % of patients | – |
| bovine serum albumin [BSA] | – | 6.4 % of patients | 2.1 % of patients | – |
| recombinant alpha-lactalbumin [rALA] | 100.0 % of patients | 25.6 % of patients | 21.8 % of patients | release compared with natural counterpart ([2]; recombinant versus natural alpha-lactalbumin): much higher release than its natural counterpart |
| NDSTEYGLFQINNK1WCKDD (NDSTEYGLFQINNKIWCKDD) [Lac4, synthetic ALA-derived peptide] | 5.6 % of patients | – | – | – |
| CLKKYKVPQLEIVPNSAEERLHSMKEGIHIAQQKE [Cas 4, synthetic peptide of αS1-casein] | – | 35.9 % of patients | 3.8 % of patients | extent of degranulation relative to the activity of the complete protein [2]: about a tenth |
| WCKDDQNPHSSNICNISCDK [Lac5, synthetic ALA-derived peptide] | 2.8 % of patients | – | – | – |
| MCVKKILDKVGINYWLAHKA [Lac7, synthetic ALA-derived peptide] | 2.8 % of patients | – | – | – |
| LSSSEE [cas b-3, synthetic peptide of β-casein] | – | – | – | IgE reactivity (dot blot) [3]: not IgE-reactive |
| EQLTKCEVFRELKDLKGYG [Lac1, synthetic ALA-derived peptide] | 30.6 % of patients | – | – | – |
| RPKHPIKHQGLPQEVLNENLLRFFVAPFPEVC [Cas 1, synthetic peptide of αS1-casein] | – | 43.6 % of patients | 6.4 % of patients | – |
| HQPHQPLPPTV [cas b-1, synthetic peptide of β-casein] | – | – | – | IgE reactivity (dot blot) [3]: not IgE-reactive |
| TFHTSGYDTQA1YQNNDSTE (TFHTSGYDTQAIYQNNDSTE) [Lac3, synthetic ALA-derived peptide] | 0 % of patients | – | – | – |
